# Experimental data from article PMC10322970, “Modular synthesis of clickable peptides via late-stage maleimidation on C(7)-H tryptophan” (Nature Communications, 2023).
# Columns and labels:
# [1] = Rh(III)-catalysed intramolecular C(7)-H maleimidation of N-pivaloyl Trp (oxidative Heck-type C-C bond, indole C7 to maleimide CH): [RhCp*Cl2]2 10 mol%, AgNTf2 40 mol%, Ag2O 1.5 eq; settings: DCM, 12.0 mM, 80.0 °C, 24.0 h
# integrin αvβ3 = integrin αvβ3 (Homo sapiens, UniProt P05106+P06756); test: SPR binding to immobilised integrin αvβ3; settings: for kon: read-out: ka
# Chain of integrin αvβ3 (P06756 31-1048): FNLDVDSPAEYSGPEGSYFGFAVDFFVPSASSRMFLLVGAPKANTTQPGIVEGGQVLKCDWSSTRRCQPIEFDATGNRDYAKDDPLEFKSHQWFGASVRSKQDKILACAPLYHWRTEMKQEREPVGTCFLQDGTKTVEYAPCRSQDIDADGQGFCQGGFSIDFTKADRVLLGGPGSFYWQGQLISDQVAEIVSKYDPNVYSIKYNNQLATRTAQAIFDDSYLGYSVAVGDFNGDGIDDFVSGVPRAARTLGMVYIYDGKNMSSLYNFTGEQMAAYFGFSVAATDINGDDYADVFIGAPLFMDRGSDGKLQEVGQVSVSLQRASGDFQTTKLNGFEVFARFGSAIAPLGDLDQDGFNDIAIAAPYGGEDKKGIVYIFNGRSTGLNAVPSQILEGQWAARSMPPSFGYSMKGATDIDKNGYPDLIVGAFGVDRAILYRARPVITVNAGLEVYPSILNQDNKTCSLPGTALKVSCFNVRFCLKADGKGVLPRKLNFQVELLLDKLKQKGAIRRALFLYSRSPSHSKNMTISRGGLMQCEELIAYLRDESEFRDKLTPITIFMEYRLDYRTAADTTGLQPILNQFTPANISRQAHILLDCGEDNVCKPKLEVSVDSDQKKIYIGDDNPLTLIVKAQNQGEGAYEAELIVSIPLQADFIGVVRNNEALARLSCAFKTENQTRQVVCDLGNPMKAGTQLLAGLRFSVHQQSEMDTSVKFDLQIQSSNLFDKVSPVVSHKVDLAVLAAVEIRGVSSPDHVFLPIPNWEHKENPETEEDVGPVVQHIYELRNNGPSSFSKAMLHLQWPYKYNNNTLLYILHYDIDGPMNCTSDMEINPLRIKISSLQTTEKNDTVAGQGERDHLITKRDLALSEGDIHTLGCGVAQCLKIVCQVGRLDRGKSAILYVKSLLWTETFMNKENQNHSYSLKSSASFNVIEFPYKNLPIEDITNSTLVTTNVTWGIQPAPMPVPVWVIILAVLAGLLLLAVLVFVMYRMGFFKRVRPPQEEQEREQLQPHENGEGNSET
# Chain of integrin αvβ3 (P05106 27-788): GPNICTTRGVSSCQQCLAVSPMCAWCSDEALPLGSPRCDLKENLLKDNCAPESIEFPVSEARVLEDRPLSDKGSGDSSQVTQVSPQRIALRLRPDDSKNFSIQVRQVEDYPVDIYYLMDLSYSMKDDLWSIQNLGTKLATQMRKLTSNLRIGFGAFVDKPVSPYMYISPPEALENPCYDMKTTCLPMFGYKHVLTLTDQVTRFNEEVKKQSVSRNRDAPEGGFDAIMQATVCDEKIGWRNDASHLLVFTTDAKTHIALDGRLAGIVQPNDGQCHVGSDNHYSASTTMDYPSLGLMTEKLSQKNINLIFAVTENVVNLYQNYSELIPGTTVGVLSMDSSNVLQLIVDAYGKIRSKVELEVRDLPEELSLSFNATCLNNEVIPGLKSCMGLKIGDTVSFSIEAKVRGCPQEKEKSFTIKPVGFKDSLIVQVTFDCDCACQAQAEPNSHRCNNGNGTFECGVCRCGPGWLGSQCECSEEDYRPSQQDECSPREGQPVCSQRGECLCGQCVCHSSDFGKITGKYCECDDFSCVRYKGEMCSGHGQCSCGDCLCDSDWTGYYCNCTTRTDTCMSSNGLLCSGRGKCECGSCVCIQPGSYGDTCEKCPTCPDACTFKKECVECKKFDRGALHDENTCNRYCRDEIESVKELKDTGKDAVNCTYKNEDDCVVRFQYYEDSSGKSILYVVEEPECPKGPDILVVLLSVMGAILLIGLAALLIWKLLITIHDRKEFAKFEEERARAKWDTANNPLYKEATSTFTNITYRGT
# integrin α5β1 = integrin α5β1 (Homo sapiens, UniProt P05556+P08648); test: SPR binding to immobilised integrin α5β1; settings: for kon: read-out: ka
# Chain of integrin α5β1 (P08648 42-1049): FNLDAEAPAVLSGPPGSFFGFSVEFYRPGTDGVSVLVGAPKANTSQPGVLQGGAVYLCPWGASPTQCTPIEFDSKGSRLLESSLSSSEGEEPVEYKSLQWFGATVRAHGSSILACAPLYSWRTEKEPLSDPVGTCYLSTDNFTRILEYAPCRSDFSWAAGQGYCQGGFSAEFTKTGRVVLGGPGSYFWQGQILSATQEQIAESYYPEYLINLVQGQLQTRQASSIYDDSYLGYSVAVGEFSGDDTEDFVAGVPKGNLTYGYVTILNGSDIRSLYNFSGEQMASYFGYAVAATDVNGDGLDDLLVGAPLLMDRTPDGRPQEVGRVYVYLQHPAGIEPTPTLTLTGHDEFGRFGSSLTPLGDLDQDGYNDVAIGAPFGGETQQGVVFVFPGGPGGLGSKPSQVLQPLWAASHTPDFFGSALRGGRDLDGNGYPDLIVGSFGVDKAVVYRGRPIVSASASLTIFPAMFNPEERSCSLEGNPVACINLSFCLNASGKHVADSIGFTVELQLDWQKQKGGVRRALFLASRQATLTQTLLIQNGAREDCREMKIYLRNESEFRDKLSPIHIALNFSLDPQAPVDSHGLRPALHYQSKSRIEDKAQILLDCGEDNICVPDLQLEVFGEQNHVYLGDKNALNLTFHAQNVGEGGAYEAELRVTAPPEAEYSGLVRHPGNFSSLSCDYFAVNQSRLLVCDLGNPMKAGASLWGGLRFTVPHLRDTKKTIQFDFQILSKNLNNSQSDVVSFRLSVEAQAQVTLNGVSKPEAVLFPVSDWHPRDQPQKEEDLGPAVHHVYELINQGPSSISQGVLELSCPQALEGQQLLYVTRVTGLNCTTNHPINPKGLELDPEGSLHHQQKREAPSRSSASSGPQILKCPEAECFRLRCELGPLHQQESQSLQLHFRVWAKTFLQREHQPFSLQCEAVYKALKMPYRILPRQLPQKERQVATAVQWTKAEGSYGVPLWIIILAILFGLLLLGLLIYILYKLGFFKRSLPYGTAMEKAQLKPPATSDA
# Chain of integrin α5β1 (P05556 21-798): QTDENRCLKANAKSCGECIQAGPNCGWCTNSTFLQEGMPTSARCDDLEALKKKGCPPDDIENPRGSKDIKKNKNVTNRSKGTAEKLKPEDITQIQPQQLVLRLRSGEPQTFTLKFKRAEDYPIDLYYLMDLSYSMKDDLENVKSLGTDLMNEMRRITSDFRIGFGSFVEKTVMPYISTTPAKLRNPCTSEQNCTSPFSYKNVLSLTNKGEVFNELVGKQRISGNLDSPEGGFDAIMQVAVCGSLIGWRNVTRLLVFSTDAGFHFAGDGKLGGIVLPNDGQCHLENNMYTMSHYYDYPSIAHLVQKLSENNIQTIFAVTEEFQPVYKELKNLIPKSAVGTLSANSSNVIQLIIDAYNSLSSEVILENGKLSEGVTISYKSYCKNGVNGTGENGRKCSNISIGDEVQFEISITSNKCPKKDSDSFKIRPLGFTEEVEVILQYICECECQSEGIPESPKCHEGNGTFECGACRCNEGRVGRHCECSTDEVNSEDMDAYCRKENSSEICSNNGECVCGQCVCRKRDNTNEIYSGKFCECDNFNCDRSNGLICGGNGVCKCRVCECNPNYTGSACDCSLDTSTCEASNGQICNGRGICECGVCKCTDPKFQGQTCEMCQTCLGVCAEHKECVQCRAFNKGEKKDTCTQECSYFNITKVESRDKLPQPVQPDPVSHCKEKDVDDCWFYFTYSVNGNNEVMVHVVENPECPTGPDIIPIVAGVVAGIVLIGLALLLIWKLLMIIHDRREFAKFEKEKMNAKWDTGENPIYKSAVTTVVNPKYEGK
# integrin αvβ5 = integrin αvβ5 (Homo sapiens, UniProt P06756+P18084); test: SPR binding to immobilised integrin αvβ5; settings: for kon: read-out: ka
# Chain of integrin αvβ5 (P06756 31-1048): as the sequence (P06756 31-1048) above
# Chain of integrin αvβ5 (P18084 24-799): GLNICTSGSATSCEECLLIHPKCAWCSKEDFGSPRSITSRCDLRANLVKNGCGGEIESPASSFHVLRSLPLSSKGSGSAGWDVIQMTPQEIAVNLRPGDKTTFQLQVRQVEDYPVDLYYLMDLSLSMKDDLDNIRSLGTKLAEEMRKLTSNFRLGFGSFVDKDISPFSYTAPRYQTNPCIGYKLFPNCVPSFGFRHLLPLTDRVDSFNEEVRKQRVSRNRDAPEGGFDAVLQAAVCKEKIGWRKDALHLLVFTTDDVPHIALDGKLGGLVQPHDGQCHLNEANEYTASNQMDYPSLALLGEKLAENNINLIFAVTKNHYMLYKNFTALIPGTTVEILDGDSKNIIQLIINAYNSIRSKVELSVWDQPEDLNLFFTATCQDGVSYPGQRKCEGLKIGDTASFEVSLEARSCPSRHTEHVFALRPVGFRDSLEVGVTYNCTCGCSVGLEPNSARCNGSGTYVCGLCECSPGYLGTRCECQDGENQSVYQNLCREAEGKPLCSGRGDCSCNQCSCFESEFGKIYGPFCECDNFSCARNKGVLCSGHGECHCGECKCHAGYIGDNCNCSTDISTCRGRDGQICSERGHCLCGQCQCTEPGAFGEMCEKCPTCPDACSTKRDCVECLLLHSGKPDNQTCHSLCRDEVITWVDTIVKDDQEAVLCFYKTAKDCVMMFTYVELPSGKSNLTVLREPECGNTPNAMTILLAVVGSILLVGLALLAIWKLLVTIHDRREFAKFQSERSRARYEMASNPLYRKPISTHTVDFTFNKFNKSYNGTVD
# LO2 cells = test: Cytotoxicity by MTT assay, LO2; settings: LO2 normal cells, 0–40 μM, 36 h
# A549 cells = test: Cytotoxicity by MTT assay, A549; settings: A549 (integrin αvβ3-positive), 0–40 μM, 36 h
# HeLa cells = test: Cytotoxicity by MTT assay, HeLa; settings: HeLa (integrin αvβ3-negative), 0–40 μM, 36 h
# MIHA cells = test: Cytotoxicity by MTT assay, MIHA; settings: MIHA normal cells, 0–40 μM, 36 h
# U87MG cells = test: Cytotoxicity by MTT assay, U87MG; settings: U87MG (integrin αvβ3-positive), 0–40 μM, 36 h
# MCF-7 cells = test: Cytotoxicity by MTT assay, MCF-7; settings: MCF-7 (integrin αvβ3-negative), 0–40 μM, 36 h
compound,measurement,setting,value
COC(=O)[C@@H]1Cc2cn(C(=O)C(C)(C)C)c3c(cccc23)C2=CC(=O)N(CCCCCC(=O)NC3(CCCC3)C(=O)N1)C2=O,"ring closure, isolated yield","[1]; from COC(=O)[C@H](Cc1cn(C(=O)C(C)(C)C)c2ccccc12)NC(=O)C1(NC(=O)CCCCCN2C(=O)C=CC2=O)CCCC1, 20-membered ring",0%
COC(=O)[C@@H]1Cc2cn(C(=O)C(C)(C)C)c3c(cccc23)C2=CC(=O)N(CCCC[C@H](NC(=O)OC(C)(C)C)C(=O)N[C@@H](CCCNC(=N)NS(=O)(=O)c3c(C)c(C)c4c(c3C)CC(C)(C)O4)C(=O)NCC(=O)N[C@@H](CC(=O)OC(C)(C)C)C(=O)NCC(=O)N1)C2=O,"ring closure, isolated yield","[1]; from COC(=O)[C@H](Cc1cn(C(=O)C(C)(C)C)c2ccccc12)NC(=O)CNC(=O)[C@H](CC(=O)OC(C)(C)C)NC(=O)CNC(=O)[C@H](CCCNC(=N)NS(=O)(=O)c1c(C)c(C)c2c(c1C)CC(C)(C)O2)NC(=O)[C@H](CCCCN1C(=O)C=CC1=O)NC(=O)OC(C)(C)C, 29-membered ring",32%
COC(=O)[C@@H]1Cc2cn(C(=O)C(C)(C)C)c3c(cccc23)C2=CC(=O)N(CCC(=O)N[C@@H](CC(=O)OC(C)(C)C)C(=O)N[C@@H](C)C(=O)N[C@@H](C(C)C)C(=O)NCC(=O)N1)C2=O [3-maleimidopropionyl-Asp(OtBu)-Ala-Val-Gly-Trp(Piv)-OMe],"ring closure, isolated yield","[1]; from COC(=O)[C@H](Cc1cn(C(=O)C(C)(C)C)c2ccccc12)NC(=O)CNC(=O)[C@@H](NC(=O)[C@H](C)NC(=O)[C@H](CC(=O)OC(C)(C)C)NC(=O)CCN1C(=O)C=CC1=O)C(C)C, 26-membered ring",43%
CC[C@H](C)[C@@H]1NC(=O)[C@H](Cc2ccccc2)NC(=O)[C@H](CCC(=O)OC(C)(C)C)NC(=O)CCN2C(=O)C=C(C2=O)c2cccc3c(cn(C(=O)C(C)(C)C)c23)C[C@@H](C(=O)OC)NC(=O)CNC1=O [3-maleimidopropionyl-Glu(OtBu)-Phe-Ile-Gly-Trp(Piv)-OMe],"ring closure, isolated yield","[1]; from CC[C@H](C)[C@H](NC(=O)[C@H](Cc1ccccc1)NC(=O)[C@H](CCC(=O)OC(C)(C)C)NC(=O)CCN1C(=O)C=CC1=O)C(=O)NCC(=O)N[C@@H](Cc1cn(C(=O)C(C)(C)C)c2ccccc12)C(=O)OC, 26-membered ring",35%
COC(=O)[C@@H]1Cc2cn(C(=O)C(C)(C)C)c3c(cccc23)C2=CC(=O)N(CCCCCC(=O)N[C@@H](C)C(=O)NCC(=O)N1)C2=O [6-maleimidohexanoyl-Ala-Gly-Trp(Piv)-OMe],"ring closure, isolated yield","[1]; from COC(=O)[C@H](Cc1cn(C(=O)C(C)(C)C)c2ccccc12)NC(=O)CNC(=O)[C@H](C)NC(=O)CCCCCN1C(=O)C=CC1=O, 23-membered ring",15%
COC(=O)[C@@H]1Cc2c[nH]c3c(cccc23)C2=CC(=O)N(CCCC[C@H](N)C(=O)N[C@@H](CCCNC(=N)N)C(=O)NCC(=O)N[C@@H](CC(=O)O)C(=O)NCC(=O)N1)C2=O [10a],Kd,integrin αvβ3,0.675 µM
same,kon,integrin αvβ3,42300 M⁻¹ s⁻¹
same,Kd,integrin α5β1,8.36 µM
same,kon,integrin α5β1,15300 M⁻¹ s⁻¹
same,Kd,integrin αvβ5,6.13 µM
same,kon,integrin αvβ5,12500 M⁻¹ s⁻¹
"N=C(N)NCCC[C@@H]1NC(=O)[C@H](CCCCNC(=S)Nc2ccc3c(c2)C(=O)OC32c3ccc(O)cc3Oc3cc(O)ccc32)NC(=O)[C@@H](Cc2ccccc2)NC(=O)[C@H](CC(=O)O)NC(=O)CNC1=O [10c, cyclo-(RGDfK (FITC)), reference compound]",Kd,integrin αvβ3,65.5 µM
same,kon,integrin αvβ3,10300 M⁻¹ s⁻¹
same,Kd,integrin α5β1,2.76 µM
same,kon,integrin α5β1,25400 M⁻¹ s⁻¹
same,Kd,integrin αvβ5,4.13 µM
same,kon,integrin αvβ5,23400 M⁻¹ s⁻¹
COC(=O)[C@@H]1Cc2cn(C(=O)C(C)(C)C)c3c(cccc23)C2=CC(=O)N(CCCCCCCCCCC(=O)NCC(=O)NCC(=O)N1)C2=O [11-maleimidoundecanoyl-Gly-Gly-Trp(Piv)-OMe],"ring closure, isolated yield","[1]; from COC(=O)[C@H](Cc1cn(C(=O)C(C)(C)C)c2ccccc12)NC(=O)CNC(=O)CNC(=O)CCCCCCCCCCN1C(=O)C=CC1=O, 28-membered ring",38%
COC(=O)[C@@H]1Cc2cn(C(=O)C(C)(C)C)c3c(cccc23)C2=CC(=O)N(CCCCCCCCCCC(=O)N1)C2=O [11-maleimidoundecanoyl-Trp(Piv)-OMe],"ring closure, isolated yield","[1]; from COC(=O)[C@H](Cc1cn(C(=O)C(C)(C)C)c2ccccc12)NC(=O)CCCCCCCCCCN1C(=O)C=CC1=O, 22-membered ring",22%
COC(=O)[C@@H]1Cc2cn(C(=O)C(C)(C)C)c3c(cccc23)C2=CC(=O)N(CCCC[C@H](NC(=O)OC(C)(C)C)C(=O)N[C@@H](C)C(=O)N[C@@H](Cc3ccccc3)C(=O)N[C@@H](CC(C)C)C(=O)NCC(=O)N1)C2=O [Boc-Lys(Nε-maleimide)-Ala-Phe-Leu-Gly-Trp(Piv)-OMe],"ring closure, isolated yield","[1]; from COC(=O)[C@H](Cc1cn(C(=O)C(C)(C)C)c2ccccc12)NC(=O)CNC(=O)[C@H](CC(C)C)NC(=O)[C@H](Cc1ccccc1)NC(=O)[C@H](C)NC(=O)[C@H](CCCCN1C(=O)C=CC1=O)NC(=O)OC(C)(C)C, 29-membered ring",35%
CC[C@H](C)[C@@H]1NC(=O)[C@@H](NC(=O)OC(C)(C)C)CCCCN2C(=O)C=C(C2=O)c2cccc3c(cn(C(=O)C(C)(C)C)c23)C[C@@H](C(=O)N[C@H](C(=O)OC)[C@@H](C)CC)NC(=O)CNC(=O)[C@H](C)NC1=O [Boc-Lys(Nε-maleimide)-Ile-Ala-Gly-Trp(Piv)-Ile-OMe],"ring closure, isolated yield","[1]; from CC[C@H](C)[C@H](NC(=O)[C@H](CCCCN1C(=O)C=CC1=O)NC(=O)OC(C)(C)C)C(=O)N[C@@H](C)C(=O)NCC(=O)N[C@@H](Cc1cn(C(=O)C(C)(C)C)c2ccccc12)C(=O)N[C@H](C(=O)OC)[C@@H](C)CC, 26-membered ring",32%
COC(=O)[C@@H]1Cc2cn(C(=O)C(C)(C)C)c3c(cccc23)C2=CC(=O)N(CCCC[C@H](NC(=O)OC(C)(C)C)C(=O)N1)C2=O [Boc-Lys(Nε-maleimide)-Trp(Piv)-OMe],"ring closure, isolated yield","[1]; from COC(=O)[C@H](Cc1cn(C(=O)C(C)(C)C)c2ccccc12)NC(=O)[C@H](CCCCN1C(=O)C=CC1=O)NC(=O)OC(C)(C)C, 17-membered ring",0%
COC(=O)[C@@H]1Cc2cn(C(=O)C(C)(C)C)c3c(cccc23)C2=CC(=O)N(CCCC[C@H](NC(=O)OC(C)(C)C)C(=O)N[C@@H](C(C)C)C(=O)N[C@@H](Cc3ccccc3)C(=O)NCC(=O)N1)C2=O [Boc-Lys(Nε-maleimide)-Val-Phe-Gly-Trp(Piv)-OMe],"ring closure, isolated yield","[1]; from COC(=O)[C@H](Cc1cn(C(=O)C(C)(C)C)c2ccccc12)NC(=O)CNC(=O)[C@H](Cc1ccccc1)NC(=O)[C@@H](NC(=O)[C@H](CCCCN1C(=O)C=CC1=O)NC(=O)OC(C)(C)C)C(C)C, 26-membered ring",39%
CC[C@H](C)[C@@H]1NC(=O)[C@H](C(C)(C)C)NC(=O)[C@@H](NC(=O)OC(C)(C)C)Cc2cn(C(=O)C(C)(C)C)c3c(cccc23)C2=CC(=O)N(CCCC[C@@H](C(=O)OC)NC(=O)CNC1=O)C2=O [Boc-Trp(Piv)-Tle-Ile-Gly-Lys(Nε-maleimide)-OMe],"ring closure, isolated yield","[1]; from CC[C@H](C)[C@H](NC(=O)[C@@H](NC(=O)[C@H](Cc1cn(C(=O)C(C)(C)C)c2ccccc12)NC(=O)OC(C)(C)C)C(C)(C)C)C(=O)NCC(=O)N[C@@H](CCCCN1C(=O)C=CC1=O)C(=O)OC, 26-membered ring",34%
COC(=O)[C@@H]1Cc2c[nH]c3c(cccc23)C2C(=O)N(CCCC[C@H](N)C(=O)N[C@@H](CCCNC(=N)N)C(=O)NCC(=O)N[C@@H](CC(=O)O)C(=O)NCC(=O)N1)C(=O)C2SCCC(=O)NCC(=O)N[C@@H](Cc1ccccc1)C(=O)N[C@@H](CC(C)C)C(=O)NCC(=O)N[C@H]1C[C@H](O[C@H]2C[C@](O)(C(=O)CO)Cc3c(O)c4c(c(O)c32)C(=O)c2c(OC)cccc2C4=O)O[C@@H](C)[C@H]1O (stereo partly drawn) [RGD-GFLG-DOX],cytotoxicity (in words),LO2 cells,lower cytotoxicity
same,cytotoxicity (in words),A549 cells,stronger cytotoxicity than DOX
same,cytotoxicity (in words),HeLa cells,lower cytotoxicity
same,cytotoxicity (in words),MIHA cells,lower cytotoxicity
same,cytotoxicity (in words),U87MG cells,stronger cytotoxicity than DOX
same,cytotoxicity (in words),MCF-7 cells,lower cytotoxicity
